Assay results published in patent US20260207580A1, “NITROXOLINE FOR USE IN THE TREATMENT OR PREVENTION OF A MALIGNANT PERIPHERAL NERVE SHEATH TUMOUR” (HEALX LTD, priority 2022, published 2026).

Tests used:
Type in all cases: cell-based
Nf1^−/− DNSCs [1] = assay: DNSC proliferation and viability, CellTiter-Glo Assay; conditions: cells Nf1−/−; 48 hrs incubation; serially diluted from 105 μM
Procedure: (§1) Nf1-Ink4a/Arf mutant DNSCs have increased cell cycle activity and proliferation in vitro, consistent with the in vivo phenotypes. The present study utilizes Nf1^−/− and Nf1^−/−; Ink4a/Arf^+/− mutant DNSCs obtained by transient infection of Nf1^flox/flox and Nf1^flox/flox; Ink4a/Arf^flox/+ DNSCs with an adenovirus carrying Cre recombinase. Selectivity of nitroxilone was compared between Nf1^−/− and Nf1^−/−; Ink4a/Arf^+/− DNSCs.
(§2) Nf1^−/− and Nf1^−/−; Ink4a/Arf^+/− DNSCs described above were treated with serially diluted nitroxoline starting from 105 μM and incubated for 48 hrs. After the incubation period, proliferation, viability and apoptosis assays were performed as described below: • DNSC proliferation and viability was assessed using the CellTiter-Glo Assay (Promega) which measures […]. […] After 10 minutes, the plates were read using a 96-well microplate luminometer. • To assess cellular apoptosis, the Caspase-Glo 3/7 kit (Promega) was utilized according to the manufacturer's instructions. […] After 10 minutes, plates were read using a 96 well luminometer to measure caspase 3/7 activity.

[2] = test system: Nf1^−/−; Ink4a/Arf^+/− DNSCs; assay: as above; conditions: cells Nf1−/−, 48 hrs incubation, serially diluted from 105 μM
Procedure: as §1, §2

Nf1^−/− DNSCs [3] = assay: Cellular apoptosis, Caspase-Glo 3/7 kit (caspase 3/7 activity); conditions: nf1−/− cells; 48 hrs incubation; serially diluted from 105 μM
Procedure: as §1, §2

[4] = test system: Nf1^−/−; Ink4a/Arf^+/− DNSCs; assay: as above; conditions: cells Nf1−/−, 48 hrs incubation, serially diluted from 105 μM
Procedure: as §1, §2

SMILES: O=[N+]([O-])c1ccc(O)c2ncccc12 [Nitroxoline, 5-nitroquinolin-8-ol]
- concentrations at which the antiproliferative effect was observed (Nf1^−/− DNSCs [1]): greater than 10 μM
- concentrations at which the antiproliferative effect was observed [2]: greater than 3 μM
- concentrations at which the induction of apoptosis was evident (Nf1^−/− DNSCs [3]): 30 to 100 µM
- concentrations at which the induction of apoptosis was evident [4]: greater than 10 μM
